The subject of series [1] is Macrophages isolated from mice peritoneum. Kind of series: Formation of cholesteryl ester and lipid droplet in mouse intraperitoneal macrophages ([1-14C]oleic acid incorporation, TLC). Format: cell-based. The following applies: Macrophage, mouse peritoneal macrophages, liposome + [1-14C]oleic acid. The text has this:
Inhibitory action of FKA-25 substance of the present invention against intraperitoneal formation of cholesteryl ester and lipid droplet in mice is explained as follows.
Formation of cholesteryl ester and lipid droplet in mice in the intraperitoneal macrophage was examined according to the method of Namatame et al. (J. Biochem. 125, 319-327, 1999).
Macrophages isolated from mice peritoneum were suspended in Dulbecco modified Eagle's medium containing 6.8% lipoprotein deficient serum (6.8% LPDS-DMEM) 2.0×10^6 cells/ml, and plated each 0.25 ml into 48 well microplate (Corning Inc.) or slide chamber (Nunc Inc.).
The plate was incubated in 5% carbon dioxide incubator at 37° C. for 2 hours, then cells without attachment were removed by washing with Hank's solution. After washing, cells were incubated with 6.8% LPDS-DMEM for 1 hour, and FKA-25 substance (2.5 μl methanol), liposome (a composition consisting of phosphatidylcholine/phosphatidylserine/dicetylphosphate/cholesterol=10:10:2:15 (n mol) in 0.3 M glucose 10 μl) and [1-^14C]oleic acid (5 μl, 0.05 μCi, 1 nmol) were added, then incubated for 14 hours.
Cultured supernatant was removed off and intracellular neutral lipid was extracted twice by adding hexane 0.6 ml and isopropanol 0.4 ml. […] The separated [^14C]cholesteryl oleate and [^14C]triacylglycerol were quantitatively measured by using radio scanner (Ambis Inc., the U.S.). […]

Series [2] in a line: Physico-chemical properties: solubility in solvents, acidity/basicity. Format: physicochemical. The text has this: Physico-chemical properties of FKA-25 substance of the present invention are as follows.

`CC(C)=CCc1c(C(O)C2OC2(C)C)ccc2[nH]c3c(c12)CC1CCC2(O)C(C)(C)C(=O)CCC2(C)C31C` (centres unmarked) [FKA-25 substance]: the inhibition at 3.2 µM in series [1] (at 3.2 μM, 14 hours, read-out: inhibition of the formation of triacylglycerol) is about 50%. Also, the IC50 in series [1] (incubated for 14 hours, read-out: IC50, inhibition of the formation of [14C]cholesteryl oleate) is 4 µM. The “Differentiation from acidity, neutrality and basicity” value in series [2] is “weak basic substance”. The Solubility in solvents result in series [2] (in methanol, acetone, chloroform and ethyl acetate) is given as “Soluble”; in series [2] (in water and hexane), “slightly soluble”.

As a reminder, the inhibition is the change of the read-out against control, counted positive when it falls. The term IC50 denotes the concentration that gives 50% inhibition.

(Values after patent publication US20040265979A1, “Novel macrophage foam cell formation inhibitor fka-25 and process for producing the same” (priority 2004, published 2004).)
